Test results published in PubChem BioAssay (NCI).
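Where inhibition never reached the appropriate level, the endpoint shown equals the highest concentration tested. Otherwise, values were interpolated linearly from a five-concentration, 48-hour dose response in 96-well plates. Abbreviation: GI50, concentration required for 50% inhibition of growth. At the TGI there is no net growth.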

What was measured:
Test in all cases: NCI-60 cell line screen, 48 h
A549 NSCLC = system: A549 NSCLC
CCRF-CEM leukemia = system: CCRF-CEM leukemia
HOP-62 NSCLC = system: HOP-62 NSCLC
HT29 colon = system: HT29 colon
KM12 colon = system: KM12 colon
PC-3 prostate = system: PC-3 prostate
SK-MEL-2 melanoma = system: SK-MEL-2 melanoma
SNB-75 CNS = system: SNB-75 CNS
SW-620 colon = system: SW-620 colon
UACC-62 melanoma = system: UACC-62 melanoma

Structure (SMILES) | GI50 (A549 NSCLC) [µM] | TGI (A549 NSCLC) [µM] | GI50 (CCRF-CEM leukemia) [µM] | TGI (CCRF-CEM leukemia) [µM] | GI50 (HOP-62 NSCLC) [µM] | TGI (HOP-62 NSCLC) [µM] | GI50 (HT29 colon) [µM] | TGI (HT29 colon) [µM] | GI50 (KM12 colon) [µM] | TGI (KM12 colon) [µM] | GI50 (PC-3 prostate) [µM] | TGI (PC-3 prostate) [µM] | GI50 (SK-MEL-2 melanoma) [µM] | TGI (SK-MEL-2 melanoma) [µM] | GI50 (SNB-75 CNS) [µM] | TGI (SNB-75 CNS) [µM] | GI50 (SW-620 colon) [µM] | TGI (SW-620 colon) [µM] | GI50 (UACC-62 melanoma) [µM] | TGI (UACC-62 melanoma) [µM]
CCCN(CCS(C)(=O)=O)Cc1ccc(-c2ccc3ncnc(Nc4ccc(OCc5cccc(F)c5)c(Cl)c4)c3c2)o1 | > 25 | > 25 | 7.39 | > 25 | > 25 | > 25 | > 25 | > 25 | > 25 | > 25 | > 25 | > 25 | > 25 | > 25 | > 25 | > 25 | > 25 | > 25 | > 25 | > 25
COc1cc2c(cc1C1COc3cc4occc4cc3C1=O)OCO2 (centres undefined) |  | > 100 |  | > 100 |  | > 100 |  | > 100 |  | > 100 |  | > 100 |  | > 100 |  | > 100 |  | > 100 |  | > 100
O=C(OCc1ccc2ccccc2n1)c1cn(C2CC2)c2cc(N3CCN(Cc4ccc5ccccc5n4)CC3)c(F)cc2c1=O | 98.2 | > 100 | > 100 | > 100 | > 53.8 | > 95.2 | 58.2 | > 100 | 41.6 | > 100 | > 44.6 | > 80.2 | > 100 | > 100 | 32 | > 66.6 | > 89.5 | > 100 | 46.1 | > 100
COc1cc(N2C(=O)[C@H](O)C2c2ccc(SC)cc2)cc(OC)c1OC (some centres undefined) | 0.0131 | > 100 | < 0.01 | > 100 | < 0.01 | > 100 | < 0.01 | 0.0887 | < 0.01 | > 100 | < 0.01 | > 100 | < 0.01 | > 100 | < 0.01 | > 100 | < 0.01 | > 100 | < 0.01 | > 100
CC#CCC1CCC(OCC)=CC1=O (centres undefined) |  | > 100 |  | > 100 |  | > 100 |  | > 100 |  | > 100 |  |  |  | > 100 |  | > 100 |  | > 100 |  | > 100
COC1C=COC2(C)Oc3c(C)c(O)c4c(c3C2=O)/C(=N/C2CCC(O)OC2C)C=C(NC(=O)/C(C)=C\C(=O)C2CC2C(O)C(C)C(O)C(C)C(OC(C)=O)C1C)C4=O (centres undefined) |  | 11.4 |  | 10.9 |  | 8.75 |  | 2.71 |  | 9.48 |  | 6.56 |  | 12.4 |  | 12.4 |  | 4.91 |  | 4.3
C/C(=C\c1ccc2ccccc2c1)[N+](=O)[O-] | 4.58 | 19.3 | 1.89 | 5.65 | 2.31 | 5.49 | 2.18 | 4.46 | 2.11 | 4.19 | 1.89 | 3.89 | 1.85 | 3.35 | 1.84 | 4.21 | 1.78 | 3.54 | 1.76 | 3.26
N#CC1(C(N)=O)C(c2ccc(Cl)cc2)CC(=O)CC1c1ccc(Cl)cc1 (centres undefined) | 18.1 | 39.8 | 21.5 | 63.5 |  |  | 15.5 | 29.5 | 19.4 | 43.9 | 15.9 | 33.7 | 16.1 | 31.1 |  |  | 17.2 | 31.1 | 13.6 | 27.2
N#CC(C#N)=C1NC(=O)CC(=O)N1 |  | > 100 |  | > 100 |  | > 100 |  | > 100 |  | > 100 |  |  |  |  |  | > 100 |  | > 100 |  | > 100
O=C(/C=C/c1ccccc1)CCN1CCOCC1 |  | 56.8 |  | 12.1 |  | 64 |  | 32.8 |  | 18.6 |  | 31.5 |  | 44.5 |  | 51.6 |  | 16.5 |  | 31.1
COc1ccccc1-c1cc(=O)c2cc(C)cnc2[nH]1 |  | > 100 |  | 55.2 |  | > 100 |  | 84.5 |  | > 100 | 27 | > 100 |  | > 100 |  |  |  | > 100 |  | > 100
COc1ccc(C=O)c([N+](=O)[O-])c1 |  | > 100 |  | 76.3 |  | > 100 |  | 63.8 |  | > 100 |  |  |  | > 100 |  | > 100 |  | > 100 |  | > 100
O=C1/C(=C/c2ccccc2[N+](=O)[O-])Cc2ccccc21 | 2.5 | 11 |  |  | 3 | 17.2 | 0.931 | 3.15 | 3.97 | 15.7 | 1.83 | 5.33 | 5.39 | 19.7 |  |  | 1.27 | 3.22 | 1.64 | 3.38
N#CC(=C1C=CC(=NO)C=C1)c1ccc(Cl)cc1 |  | 49.7 |  | 9.01 |  | 41.6 |  | 22.9 |  | 3.98 |  |  |  | 20.2 |  | > 100 |  | 24 |  | 21
O=C1C(=C([O-])c2ccccc2)C(=O)c2ccccc21.O=C1C(=C([O-])c2ccccc2)C(=O)c2ccccc21.[Fe+2] | 54.7 | > 100 | 80.3 | > 100 | > 100 | > 100 | > 100 | > 100 | 55.1 | > 100 |  |  |  |  | 61.5 | > 100 | > 100 | > 100 |  | 
Cc1cccc(C)c1NC(=O)/C(=N/NC(N)=S)C(C)C(=O)c1ccc(Cl)cc1 (centres undefined) |  | > 100 |  | > 100 |  | > 100 |  | > 100 |  | > 100 |  |  |  | > 100 |  | > 100 |  | > 100 |  | > 100
OCC12C3C4C5C3C1C5C42 (centres undefined) |  | > 100 |  | > 100 |  | > 100 |  | > 100 |  |  |  | > 100 |  | > 100 |  | > 100 |  | > 100 |  | > 100
